According to patent US12114658B2, “Compounds having a nitrogen-containing unsaturated six-membered ring and agricultural and horticultural fungicides containing the same as active ingredients” (MITSUI CHEMICALS CROP & LIFE SOLUTIONS, INC., priority 2018, dated 2024):

What was measured:
Alternaia brassicicola = test: Test Example C: Alternaria sooty spot on cabbage; details: Brassica oleracea, read-out: control value
Method: (§1) Disease development in Test Examples described below was evaluated in increments of 0.05 by setting 0 as no incidence of disease and 3 as disease development in a plant of untreated group. Further, control values were calculated using the following equation based on disease development.
(§2) <Control Value> Control value=100{1−(n/3)} • n=Disease development of each treated group
Seeds of a test plant (cabbage variety: Shikidori) were planted and cultivated until the cotyledons extended. In the test, the inventive compounds were dissolved into a dimethyl sulfoxide-methanol mixture solution (volume ratio: 9/1), and the resultant solutions were diluted with well water to a concentration of 250 ppm. The thus-obtained dilutions were sprayed to the test plant (2.5 ml/pot). After the dilutions dried, a conidial suspension (4-8×10^5 conidia/ml) of Alternaia brassicicola was inoculated to the plant by spraying. After the inoculation, the plant was kept in a mist chamber at room temperature of 20 to 23° C. for about 48 hours to promote the onset of disease. The disease development was investigated 2 to 3 days after the inoculation, and the effectiveness of the dilutions was evaluated.

Magnaporthe grisea = test: whole plant or invertebrate; assay type: in vivo; details: Pyricularia oryzae, in Oryza sativa, read-out: control value
[1] = system: Colletotrichum orbiculare; test: Test Example H: anthracnose on cucumber; details: in Cucumis sativus, read-out: control value
Method: as §1, §2
Seeds of a test plant (cucumber variety: Sagami Hanjiro) were planted and cultivated until the first leaf appeared. In the test, the inventive compounds were dissolved into a dimethyl sulfoxide-methanol mixture solution (volume ratio: 9/1), and the resultant solutions were diluted with well water to a concentration of 250 ppm. The thus-obtained dilutions were sprayed to the test plant (2.5 ml/pot). After the dilutions dried, a conidial suspension (2-4×10^5 conidia/ml) of Colletotrichum orbiculare was inoculated to the plant by spraying. After the inoculation, the plant was kept in a mist chamber at room temperature of 20 to 23° C. for about 24 hours to promote the onset of disease. The disease development was investigated 6 to 10 days after the inoculation, and the effectiveness of the dilutions was evaluated.

Puccinia recondita = test: Test Example E: brown rust on wheat; assay type: in vivo; details: 250 ppm spray (2.5 ml/pot) before inoculation, wheat variety Norin 61, investigated 7 to 10 days after inoculation

Measured: pest or weed control at 250 ppm

CCn1c(-c2ccccc2)c(-n2cnc(Cl)c2Cl)ccc1=O [IM-001, 5-(4,5-dichloro-1H-imidazol-1-yl)-1-ethyl-6-phenylpyridine-2(1H)-one]
> 50%: all assays above

CCn1c(-c2ccccc2)c(-n2cnc(Cl)c2Cl)cc(Cl)c1=O [IM-003, 3-chloro-5-(4,5-dichloro-1H-imidazol-1-yl)-1-ethyl-6-phenylpyridine-2(1H)-one]
> 50%: all assays above

CCn1c(-c2ccc(OC)cc2)c(-n2ncc(C)c2Cl)cc(Cl)c1=O [PY-018, 3-chloro-5-(5-chloro-4-methyl-1H-pyrazol-1-yl)-1-ethyl-6-(4-methoxyphenyl)pyridine-2(1H)-one]
> 50%: all assays above

COc1ccc(-c2c(-n3cc(C)cn3)ccc(=O)n2CC(F)F)cc1 [PY-031, 1-(2,2-difluoroethyl)-6-(4-methoxyphenyl)-5-(4-methyl-1H-pyrazol-1-yl)pyridine-2(1H)-one]
> 50%: Alternaia brassicicola

COc1ccc(-c2c(-n3ncc(C)c3Cl)cc(Cl)c(=O)n2CC(F)F)cc1 [PY-032, 3-chloro-5-(5-chloro-4-methyl-1H-pyrazol-1-yl)-1-(2,2-difluoroethyl)-6-(4-methoxyphenyl)pyridine-2(1H)-one]
> 50%: all assays above

CCn1c(-c2ccc(OC)cc2)c(-n2cc(C)cn2)ccc1=O [PY-036, 1-ethyl-6-(4-methoxyphenyl)-5-(4-methyl-1H-pyrazol-1-yl)pyridine-2(1H)-one]
> 50%: Alternaia brassicicola | [1]

CCn1c(-c2ccc(O)cc2)c(-n2ncc(C)c2Cl)cc(Cl)c1=O [PY-041, 3-chloro-5-(5-chloro-4-methyl-1H-pyrazol-1-yl)-1-ethyl-6-(4-hydroxyphenyl)pyridine-2(1H)-one]
> 50%: Alternaia brassicicola | Magnaporthe grisea | Puccinia recondita

CCn1c(-c2ccc(OCC(F)F)cc2)c(-n2ncc(C)c2Cl)cc(Cl)c1=O [PY-046, 3-chloro-5-(5-chloro-4-methyl-1H-pyrazol-1-yl)-6-(4-(2,2-difluoroethoxy)phenyl)-1-eth ylpyridine-2(1H)-one]
> 50%: Alternaia brassicicola | Magnaporthe grisea | Puccinia recondita

CCn1c(-c2ccc(F)cc2)c(-n2nccc2C(F)(F)F)cc(Cl)c1=O [PY-090, 3-chloro-1-ethyl-6-(4-fluorophenyl)-5-(5-(trifluoromethyl)-1H-pyrazol-1-yl)pyridine-2(1H)-one]
> 50%: all assays above

CCn1c(-c2ccc(F)cc2)c(-n2nccc2Cl)cc(Cl)c1=O [PY-104, 3-chloro-5-(5-chloro-1H-pyrazol-1-yl)-1-ethyl-6-(4-fluorophenyl)pyridine-2(1H)-one]
> 50%: all assays above

COn1c(-c2ccc(F)cc2)c(-n2cc(C)cn2)ccc1=O [PY-374, 6-(4-fluorophenyl)-1-methoxy-5-(4-methyl-1H-pyrazol-1-yl)pyridin-2(1H)-one]
> 50%: Alternaia brassicicola

COn1c(-c2ccc(F)cc2)c(-n2cc(C)cn2)cc(Br)c1=O [PY-381, 3-bromo-6-(4-fluorophenyl)-1-methoxy-5-(4-methyl-1H-pyrazol-1-yl)pyridin-2 (1H)-one]
> 50%: Alternaia brassicicola | [1]

COn1c(-c2ccc(F)cc2)c(-n2ncc(C)c2Cl)cc(Br)c1=O [PY-382, 3-bromo-5-(5-chloro-4-methyl-1H-pyrazol-1-yl)-6-(4-fluorophenyl)-1-methoxypyridin-2(1H)-one]
> 50%: all assays above
